Key:
[1] = cited from earlier work
[2] = system: Rhipicephalus sanguineus (Brown Dog Tick); assay: Method A: contact activity against ticks; type: in vivo; details: 48 h; for LC50: read-out: LD50; for pest or weed control at 25 µg/mL: read-out: control of Rhipicephalus sanguineus
Source text: • Method of Use Examples Method A: Screening Method to Test Contact Activity of Compounds Against Ticks
A solution of the test compound was used to coat the inner wall of glass vials and to treat two filter papers. Once dried, one filter paper was placed in the cap of the vial and the other in the bottom of the vial. Each treated vial was infested with 10 adult Rhipicephalus sanguineus (Brown Dog Tick). Contact of the ticks with residues was induced by holding the vials in a controlled environment (24° C., 90-95% relative humidity) and assessment was performed at 24, 48 hours after application in comparison with untreated controls.

[3] = system: green peach aphid (Myzus persicae); assay: Method J: Myzus persicae test (spray application); type: in vivo; details: concentration of 500 g/ha, spray on infected Chinese cabbage leaf-disks
Source text: Method J: Myzus persicae Test (Spray Application)
100% means that all aphids have been killed; 0% means that none of the aphids have been killed.

[4] = system: western flower thrips (Frankliniella occidentalis); assay: Method L: Frankliniella occidentalis test (spray application); type: in vivo; details: concentration of 500 g/ha, spray on French bean leaf-disks
Source text: Method L: Frankliniella occidentalis Test (Spray Application)
French bean (Phaseolus vulgaris) leaf-disks are sprayed with a test solution containing the desired concentration of the active ingredient. Once dry, the leaf disks are infested with western flower thrips (Frankliniella occidentalis).
100% means that all the thrips have been killed; 0% means that none of the thrips have been killed.

[5] = system: fall armyworm larvae (Spodoptera frugiperda); assay: Method I: Spodoptera frugiperda test (spray application); type: in vivo; details: concentration of 500 g/ha, spray on maize leaf sections
Source text: Method I: Spodoptera frugiperda Test (Spray Application)
Maize (Zea mais) leaf sections are sprayed with a preparation of the active ingredient of the desired concentration. Once dry, the leaf sections are infested with fall armyworm larvae (Spodoptera frugiperda).

[6] = system: am. serpentine leaf miner (Liriomyza trifolii); assay: Method M: Liriomyza trifolii test (spray application); type: in vivo; details: concentration of 500 g/ha, spray on infested French bean leaf-disks
Source text: Method M: Liriomyza trifolii Test (Spray Application)
French bean (Phaseolus vulgaris) leaf-disks infested with larvaes of the am. serpentine leaf miner (Liriomyza trifolii) are sprayed with a test solution containing the desired concentration of the active ingredient.
100% means that all the leaf miners have been killed; 0% means that none of the leaf miners have been killed.

[7] = system: two spotted spidermite (Tetranychus urticae); assay: Method K: Tetranychus urticae test; OP-resistant (spray application); details: read-out: activity (mortality in %), Tetranychus urticae
Protocol: Method K: Tetranychus urticae Test; OP-Resistant (Spray Application)
French beans (Phaseolus vulgaris) which are heavily infested with all stages of the two spotted spidermite (Tetranychus urticae), are sprayed with a preparation of the active ingredient at the desired concentration.
After the specified period of time, mortality in % is determined. 100% means that all spider mites have been killed and 0% means that none of the spider mites have been killed.

Ctenocephalides felis = assay: Method B: contact activity against fleas; type: in vivo; details: 72 hours assessment
Protocol: Method B: Screening Method to Test Contact Activity of Compounds Against Fleas
A solution of the test compound was dispensed, using a pipette, onto filter paper placed into a glass vial. The filter paper was allowed to dry before infesting each vial with 10 adult Ctenocephalides felis. The treated Ctenocephalides felis were held in a controlled environment (24° C., 90-95% relative humidity) and assessment was performed at 24, 48 and 72 hours after application in comparison with untreated controls.

Structure (SMILES)	oral LD50 [1]	LC50 [2] [µg/mL]	pest or weed control at 25 µg/mL [2] [%]	mortality at 500 g/ha [3] [%]	mortality at 500 g/ha [4] [%]	mortality at 500 g/ha [5] [%]	mortality at 500 g/ha [6] [%]	mortality at 100 g/ha [7] [%]	LD50 (Ctenocephalides felis)
N#Cc1ccc(CC(=NNC(=O)Nc2ccc(OC(F)(F)F)cc2)c2cccc(C(F)(F)F)c2)cc1 (mixture of isomers) [Metaflumizone]	> 5,000 mg/kg								
Cc1c(SC(F)(F)F)c(C#N)nn1-c1c(Cl)cc(C(F)(F)F)cc1Cl [Compound 1, 3-Cyano-1-(2,6-dichloro-4-trifluoromethylphenyl)-5-methyl-4-trifluoromethylthiopyrazole]		< 6	≥ 80	≥ 80	≥ 80				
N#Cc1nn(-c2c(Cl)cc(C(F)(F)F)cc2Cl)c(CF)c1SC(F)(F)F [Compound 3, 3-cyano-1-(2,6-dichloro-4-trifluoromethylphenyl)-5-fluoromethyl-4-trifluoromethylthiopyrazole]		< 6	≥ 80	≥ 80	≥ 80				
Cc1c(S(=O)(=O)C(F)(F)F)c(C#N)nn1-c1c(Cl)cc(C(F)(F)F)cc1Cl [Compound 4, 3-cyano-1-(2,6-dichloro-4-trifluoromethylphenyl)-5-methyl-4-trifluoromethylsulfonylpyrazole]		< 6	≥ 80	≥ 80	≥ 80				
Cc1c([S+]([O-])C(F)(F)F)c(C#N)nn1-c1c(Cl)cc(C(F)(F)F)cc1Cl (stereo not shown) [Compound 5, 3-cyano-1-(2,6-dichloro-4-trifluoromethylphenyl)-5-methyl-4-trifluoromethylsulfinylpyrazole]		< 6	≥ 80	≥ 80	≥ 80	≥ 80			
Cc1c(SC(F)(F)F)c(C#N)nn1-c1c(F)cc(C(F)(F)F)cc1F [Compound 6, 3-cyano-1-(2,6-difluoro-4-trifluoromethylphenyl)-5-methyl-4-trifluoromethylthiopyrazole]		< 6	≥ 80	≥ 80	≥ 80				
Cc1c(SC(F)(F)F)c(C#N)nn1-c1c(F)cc(C(F)(F)F)cc1Cl [Compound 7, 1-(2-Chloro-6-fluoro-4-trifluoromethylphenyl)-3-cyano-5-methyl-4-trifluoromethylthiopyrazole]		< 6	≥ 80	≥ 80	≥ 80				
N#Cc1nn(-c2c(F)cc(C(F)(F)F)cc2Cl)c(CF)c1SC(F)(F)F [Compound 8, 1-(2-Chloro-6-fluoro-4-trifluoromethylphenyl)-3-cyano-5-fluoromethyl-4-trifluoromethylthiopyrazole]		< 6	≥ 80	≥ 80	≥ 80				
Cc1c([S+]([O-])C(F)(F)F)c(C#N)nn1-c1c(F)cc(C(F)(F)F)cc1Cl (stereo not shown) [Compound 9, 1-(2-Chloro-6-fluoro-4-trifluoromethylphenyl)-3-cyano-5-methyl-4-trifluoromethylsulfinylpyrazole]		< 6	≥ 80	≥ 80	≥ 80				
N#Cc1nn(-c2c(Cl)cc(C(F)(F)F)cc2Cl)c(CF)c1[S+]([O-])C(F)(F)F (stereo not shown) [Compound 10, 3-Cyano-1-(2,6-dichloro-4-trifluoromethylphenyl)-5-fluoromethyl-4-trifluoromethylsulfinylpyrazole]		< 6	≥ 80	≥ 80	≥ 80	≥ 80	≥ 80		
N#Cc1nn(-c2c(F)cc(C(F)(F)F)cc2Cl)c(CF)c1[S+]([O-])C(F)(F)F (stereo not shown) [Compound 11, 1-(2-Chloro-6-fluoro-4-trifluoromethylphenyl)-3-cyano-5-fluoromethyl-4-trifluoromethylsulfinylpyrazole]		< 6	≥ 80	≥ 80					
Cc1c([S+]([O-])C(F)(F)F)c(C#N)nn1-c1c(F)cc(C(F)(F)F)cc1F (stereo not shown) [Compound 12, 3-Cyano-1-(2,6-difluoro-4-trifluoromethylphenyl)-5-methyl-4-trifluoromethylsulfinylpyrazole]		< 6	≥ 80	≥ 80	≥ 80				
Cc1c([S+]([O-])C(F)(F)F)c(C#N)nn1-c1ccc(C(F)(F)F)cc1F (stereo not shown) [Compound 14, 3-Cyano-1-(2-fluoro-4-trifluoromethylphenyl)-5-methyl-4-trifluoromethylsulfinylpyrazole]		< 6	≥ 80	≥ 80				≥ 80	
N#Cc1nn(-c2c(Cl)cc(OC(F)(F)F)cc2Cl)c(CF)c1SC(F)(F)F [Compound 16, 3-Cyano-1-(2,6-dichloro-4-trifluoromethoxyphenyl)-5-fluoromethyl-4-trifluoromethylthiopyrazole]		< 6	≥ 80	≥ 80	≥ 80				
Cc1c(SC(F)(F)F)c(C#N)nn1-c1c(Cl)cc(OC(F)(F)F)cc1Cl [Compound 17, 3-Cyano-1-(2,6-dichloro-4-trifluoromethoxyphenyl)-5-methyl-4-trifluoromethylthiopyrazole]		< 6	≥ 80	≥ 80					
N#Cc1nn(-c2c(Cl)cc(OC(F)(F)F)cc2Cl)c(CF)c1[S+]([O-])C(F)(F)F (stereo not shown) [Compound 18, 3-Cyano-1-(2,6-dichloro-4-trifluoromethoxyphenyl)-5-fluoromethyl-4-trifluoromethylsulfinylpyrazole]		< 6	≥ 80	≥ 80					
Cc1c([S+]([O-])C(F)(F)F)c(C#N)nn1-c1c(Cl)cc(OC(F)(F)F)cc1Cl (stereo not shown) [Compound 19, 3-Cyano-1-(2,6-dichloro-4-trifluoromethoxyphenyl)-5-methyl-4-trifluoromethylsulfinylpyrazole]		< 6	≥ 80	≥ 80	≥ 80				
Cc1cc(C(F)(F)F)cc(Cl)c1-n1nc(C#N)c(SC(F)(F)F)c1C [Compound 43, 1-(2-chloro-6-methyl-4-trifluoromethylphenyl)-3-cyano-5-methyl-4-trifluoromethylthiopyrazole]		< 6	≥ 80	≥ 80					
Cc1cc(C(F)(F)F)cc(Cl)c1-n1nc(C#N)c([S+]([O-])C(F)(F)F)c1C (stereo not shown) [Compound 44, 1-(2-Chloro-6-methyl-4-trifluoromethylphenyl)-3-cyano-5-methyl-4-trifluoromethylsulfinylpyrazole]		< 6	≥ 80	≥ 80	≥ 80				
N#Cc1nn(-c2c(Cl)cc(C(F)(F)F)cc2Cl)c(N)c1[S+]([O-])C(F)(F)F (stereo not shown) [fipronil]									around 20 ppm

— patent US9339033B2, “1-aryl-5-alkyl pyrazole derivative compounds, processes of making and methods of using thereof” (MERIAL, INC., priority 2007, dated 2016)
